Measurements published in PubChem BioAssay AID248 (DTP/NCI, 2004).
Several values for one entry are separate records, joined by “and”; a condition that tells them apart may be missing. Equal values may be shown once. Inconclusive results and toxic doses are left out. Cut-off read from the data, not from the text of the source: active = T/C of 150% or more; inactive = T/C below 125%.

System: L1210 leukemia ip in BDF1 mice, survival T/C
Test: NCI In Vivo Anticancer Drug Screen. Data for tumor model L1210 Leukemia (intraperitoneal) in B6D2F1 (BDF1) mice
Conditions: endpoint: mean survival time, higher = longer survival
Outline: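 Value reflects the ratio of survival in compound-treated mice to survival in vehicle-treated controls, with both groups carrying the same transplanted tumor.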

[1] = dose: 25.0 mg/kg/injection, schedule: Q04DX003 (ip), vehicle: Klucel (hydroxypropylcellulose) (HPC)
[2] = dose: 50.0 mg/kg/injection, schedule: Q01DX009 (ip), vehicle: Klucel (hydroxypropylcellulose) (HPC)
[3] = dose: 50.0 mg/kg/injection, schedule: Q04DX003 (ip), vehicle: Klucel (hydroxypropylcellulose) (HPC)
[4] = dose: 100.0 mg/kg/injection, schedule: Q04DX003 (ip), vehicle: Klucel (hydroxypropylcellulose) (HPC)
[5] = dose: 200.0 mg/kg/injection, schedule: Q04DX003 (ip), vehicle: Klucel (hydroxypropylcellulose) (HPC)
[6] = dose: 400.0 mg/kg/injection, schedule: Q04DX003 (ip), vehicle: Klucel (hydroxypropylcellulose) (HPC)
[7] = dose: 100.0 mg/kg/injection, schedule: Q01DX009 (ip), vehicle: Klucel (hydroxypropylcellulose) (HPC)
[8] = dose: 200.0 mg/kg/injection, schedule: Q01DX009 (ip), vehicle: Klucel (hydroxypropylcellulose) (HPC)
[9] = dose: 100.0 mg/kg/injection, schedule: Q01DX009 (ip), vehicle: saline with Tween-80
[10] = dose: 100.0 mg/kg/injection, schedule: Q04DX003 (ip), vehicle: saline with Tween-80
[11] = dose: 200.0 mg/kg/injection, schedule: Q01DX009 (ip), vehicle: saline with Tween-80
[12] = dose: 200.0 mg/kg/injection, schedule: Q04DX003 (ip), vehicle: saline with Tween-80
[13] = dose: 400.0 mg/kg/injection, schedule: Q01DX009 (ip), vehicle: saline with Tween-80
[14] = dose: 400.0 mg/kg/injection, schedule: Q04DX003 (ip), vehicle: saline with Tween-80
[15] = dose: 100.0 mg/kg/injection, schedule: Q01DX009 (ip), vehicle: saline
[16] = dose: 200.0 mg/kg/injection, schedule: Q01DX009 (ip), vehicle: saline
[17] = dose: 100.0 mg/kg/injection, schedule: Q04DX002 (ip), vehicle: Klucel (hydroxypropylcellulose) (HPC)
[18] = dose: 200.0 mg/kg/injection, schedule: Q04DX002 (ip), vehicle: Klucel (hydroxypropylcellulose) (HPC)
[19] = dose: 100.0 mg/kg/injection, schedule: Q01DX001 (ip), vehicle: saline
[20] = dose: 100.0 mg/kg/injection, schedule: Q04DX003 (ip), vehicle: saline
[21] = dose: 200.0 mg/kg/injection, schedule: Q04DX003 (ip), vehicle: saline
[22] = dose: 400.0 mg/kg/injection, schedule: Q04DX003 (ip), vehicle: saline

Measured: T/C

CNC(=S)N/N=C(/C)CCC/C(C)=N/NC(=S)NC
inactive: dose: 1.56 mg/kg/injection, schedule: Q03HX024 (ip), vehicle: Klucel (hydroxypropylcellulose) (HPC) 95 % of control | dose: 3.12 mg/kg/injection, schedule: Q01DX009 (ip), vehicle: Klucel (hydroxypropylcellulose) (HPC) 96 % of control | dose: 3.12 mg/kg/injection, schedule: Q03HX024 (ip), vehicle: Klucel (hydroxypropylcellulose) (HPC) 102 % of control | dose: 6.25 mg/kg/injection, schedule: Q01DX009 (ip), vehicle: Klucel (hydroxypropylcellulose) (HPC) 96 % of control | dose: 6.25 mg/kg/injection, schedule: Q03HX024 (ip), vehicle: Klucel (hydroxypropylcellulose) (HPC) 97 % of control | dose: 6.25 mg/kg/injection, schedule: Q04DX003 (ip), vehicle: Klucel (hydroxypropylcellulose) (HPC) 108 % of control | dose: 12.5 mg/kg/injection, schedule: Q01DX009 (ip), vehicle: Klucel (hydroxypropylcellulose) (HPC) 92 % of control | dose: 12.5 mg/kg/injection, schedule: Q03HX024 (ip), vehicle: Klucel (hydroxypropylcellulose) (HPC) 95 % of control | dose: 12.5 mg/kg/injection, schedule: Q04DX003 (ip), vehicle: Klucel (hydroxypropylcellulose) (HPC) 101 % of control | dose: 25.0 mg/kg/injection, schedule: Q01DX009 (ip), vehicle: Klucel (hydroxypropylcellulose) (HPC) 101 % of control | dose: 25.0 mg/kg/injection, schedule: Q03HX024 (ip), vehicle: Klucel (hydroxypropylcellulose) (HPC) 92 % of control | [1] 103 % of control | [2] 98 % of control | [3] 101 % of control | [4] 103 % of control | [5] 93 % of control | [6] 108 % of control

CCOC(=O)CNC(=O)C(CSSCC(NC(=O)OCc1ccccc1)C(=O)NCC(=O)OCC)NC(=O)OCc1ccccc1 (stereo unspecified)
inactive: [1] 95 % of control | [2] 100 % of control | [3] 104 % of control | [7] 103 % of control | [4] 104 % of control and 90 % of control | [8] 92 % of control

CCOC(=O)CN=CC1CCC=CO1 (stereo unspecified)
inactive: [9] 97 % of control | [10] 93 % of control | [11] 103 % of control | [12] 95 % of control | [13] 108 % of control | [14] 93 % of control

CNC(=O)N(C)Cc1ccccc1
inactive: [15] 107 % of control | [10] 104 % of control | [16] 115 % of control | [12] 93 % of control | dose: 400.0 mg/kg/injection, schedule: Q01DX009 (ip), vehicle: saline 117 % of control | [14] 104 % of control

CCCC(O)c1ccc(OC)c(OC)c1 (stereo unspecified)
inactive: [17] 97 % of control | [18] 102 % of control

CC1Cc2c(ccc3ccccc23)C1=O (stereo unspecified)
inactive: [19] 98 % of control | [20] 94 % of control | dose: 200.0 mg/kg/injection, schedule: Q01DX001 (ip), vehicle: saline 97 % of control | [21] 94 % of control | dose: 400.0 mg/kg/injection, schedule: Q01DX001 (ip), vehicle: saline 101 % of control | [22] 95 % of control

O=C(Nc1cccc2ccccc12)C(F)(F)F
inactive: [19] 93 % of control | [9] 98 % of control | [10] 90 % of control | [11] 104 % of control | [12] 95 % of control | [13] 98 % of control | [14] 93 % of control

Cc1ccc(C(=O)/C=C/c2ccc3c(c2)OCO3)c(C)c1
inactive: dose: 100.0 mg/kg/injection, schedule: Q04DX002 (ip), vehicle: DMSO 103 % of control | dose: 200.0 mg/kg/injection, schedule: Q04DX002 (ip), vehicle: DMSO 93 % of control | dose: 400.0 mg/kg/injection, schedule: Q04DX002 (ip), vehicle: DMSO 103 % of control

Cc1cc(N)c(C)c(CC#N)c1
inactive: dose: 50.0 mg/kg/injection, schedule: Q01DX009 (ip), vehicle: saline 97 % of control | [15] 118 % of control | [16] 90 % of control

CN(C)CC1CC(=O)C(CN(C)C)CC1=O (stereo unspecified)
inactive: dose: 5.0 mg/kg/injection, schedule: Q01DX001 (ip), vehicle: saline 92 % of control | dose: 10.0 mg/kg/injection, schedule: Q01DX001 (ip), vehicle: saline 107 % of control | dose: 20.0 mg/kg/injection, schedule: Q01DX001 (ip), vehicle: saline 104 % of control | dose: 40.0 mg/kg/injection, schedule: Q01DX001 (ip), vehicle: saline 103 % of control

CC1=Nc2ccccc2/C1=C/c1c(O)[nH]c(=O)[nH]c1=O
inactive: dose: 37.5 mg/kg/injection, schedule: Q01DX Z (ip), vehicle: carboxymethylcellulose (CMC) 103 % of control | dose: 75.0 mg/kg/injection, schedule: Q01DX Z (ip), vehicle: carboxymethylcellulose (CMC) 103 % of control | dose: 150.0 mg/kg/injection, schedule: Q01DX Z (ip), vehicle: carboxymethylcellulose (CMC) 100 % of control | dose: 300.0 mg/kg/injection, schedule: Q01DX Z (ip), vehicle: carboxymethylcellulose (CMC) 103 % of control

O=C1OCCN1S(=O)(=O)c1ccc(Cl)c(Cl)c1
inactive: [7] 87 % of control | [4] 100 % of control | [8] 97 % of control | [5] 105 % of control | dose: 400.0 mg/kg/injection, schedule: Q01DX009 (ip), vehicle: Klucel (hydroxypropylcellulose) (HPC) 90 % of control | [6] 101 % of control

CCCCNC(=O)Nc1cc(Cl)c(Cl)cc1C
inactive: [17] 91 % of control | [18] 97 % of control | dose: 400.0 mg/kg/injection, schedule: Q04DX002 (ip), vehicle: Klucel (hydroxypropylcellulose) (HPC) 97 % of control

CCOC(=O)C1(C(=O)OCC)CCC(OCC)N1C(=O)c1cc2c(cc1[N+](=O)[O-])OCO2 (stereo unspecified)
inactive: [4] 99 % of control | [5] 105 % of control | [6] 97 % of control

CCc1ccc(C(O)C(=O)O)cc1 (stereo unspecified)
inactive: dose: 75.0 mg/kg/injection, schedule: Q01DX001 (ip), vehicle: acetone 90 % of control | dose: 150.0 mg/kg/injection, schedule: Q01DX001 (ip), vehicle: acetone 94 % of control

COc1ccc(OC)c(/C=N/NC(=O)CCCCCCCCC(=O)N/N=C/c2cc(OC)ccc2OC)c1
inactive: dose: 100.0 mg/kg/injection, schedule: Q01DX001 (ip), vehicle: saline with Tween-80 90 % of control | [9] 101 % of control and 106 % of control | dose: 100.0 mg/kg/injection, schedule: Q04DX002 (ip), vehicle: saline with Tween-80 94 % of control and 108 % of control | [20] 92 % of control | dose: 200.0 mg/kg/injection, schedule: Q01DX001 (ip), vehicle: saline with Tween-80 92 % of control | [11] 97 % of control and 90 % of control | dose: 200.0 mg/kg/injection, schedule: Q04DX002 (ip), vehicle: saline with Tween-80 95 % of control and 90 % of control | [21] 92 % of control | dose: 400.0 mg/kg/injection, schedule: Q01DX001 (ip), vehicle: saline with Tween-80 87 % of control | [13] 94 % of control | dose: 400.0 mg/kg/injection, schedule: Q04DX002 (ip), vehicle: saline with Tween-80 86 % of control | [22] 87 % of control

c1cc2c3c(cccc3c1)-c1nc3ccccc3nc1-2
inactive: dose: 50.0 mg/kg/injection, schedule: Q01DX Z (ip), vehicle: methylcellulose (MC) 100 % of control | dose: 100.0 mg/kg/injection, schedule: Q01DX001 (ip), vehicle: carboxymethylcellulose (CMC) 94 % of control | dose: 100.0 mg/kg/injection, schedule: Q01DX Z (ip), vehicle: methylcellulose (MC) 98 % of control | dose: 125.0 mg/kg/injection, schedule: Q01DX Z (ip), vehicle: methylcellulose (MC) 102 % of control | dose: 200.0 mg/kg/injection, schedule: Q01DX001 (ip), vehicle: carboxymethylcellulose (CMC) 100 % of control | dose: 400.0 mg/kg/injection, schedule: Q01DX001 (ip), vehicle: carboxymethylcellulose (CMC) 88 % of control
